Laboratory results taken from US4495197A, “N-Carboxyl-thienamycin esters and analogs thereof as anti-inflammatory agents” (Merck & Co., Inc., priority 1982, dated 1985).
Like-named read-outs stand apart in the source and are kept apart here.

Target: T1, Human Polymorphonuclear Leukocyte Elastase (Homo sapiens, UniProt P08246)
T1 construct: Crude extract of human polymorphonuclear leukocytes (PMN) containing elastase activity; from tissue; host or cells: human polymorphonuclear leukocytes (crude extract)
T1 sequence (P08246 30-247 limits assumed): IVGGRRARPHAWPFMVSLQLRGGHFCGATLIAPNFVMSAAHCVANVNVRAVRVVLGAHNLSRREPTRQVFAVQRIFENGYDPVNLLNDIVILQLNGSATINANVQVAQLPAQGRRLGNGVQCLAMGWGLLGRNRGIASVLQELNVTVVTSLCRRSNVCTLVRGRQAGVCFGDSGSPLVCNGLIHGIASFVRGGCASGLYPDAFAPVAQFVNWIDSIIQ
Assay: Inhibition of human PMN elastase via hydrolysis of N-t-Boc-alanyl-alanyl-prolylalanine-p-nitroanilide
Format: biochemical
Details: pH 7.5
Experimental: Protocol-Enzyme Assays for the Inhibition of Human Polymorphonuclear Leukocyte Elastase Via Hydrolysis of N-t-Boc-alanyl-alanyl-prolylalanine-p-nitroanilide Reagents:
0.05M TES (N-tris[hydroxymethyl]methyl-2-amino-ethanesulfonic acid) Buffer, pH 7.5.
0.2 mM N-t-Boc-alanyl-alanyl-Prolyl-Alanine-p-nitroanilide (Boc-AAPAN).
To prepare substrate, the solid (m.w. 550) was first dissolved in 10.0 ml DMSO. Buffer at pH 7.5 was then added to a final volume of 100 ml.
Crude extract of human polymorphonuclear leukocytes (PMN) containing elastase activity.
Inhibitors (N-carboxyl-thienamycin eesters) to be tested dissolved in DMSO just before use.
To 1.0 ml of 0.2 mM Boc-AAPAN in a cuvette, 0.01-0.1 ml of DMSO with or without inhibitor was added. After mixing, a measurement was taken at 410 mμ to detect any spontaneous hydrolysis due to presence of test compound. 0.05 Milliliters of PMN extract was then added and the ΔOD/min at 410 mμ was measured and recorded. Beckman model 35 spectrophotometer was used.
Results were reported as % inhibition produced by test compound within 2 minutes as represented by the % decrease in ΔOD/min as compared to a control without inhibitor.
The elastase activity in the crude PMN extract may vary from one preparation to another. A control of each new batch is run, and the volume added in the assay procedure is adjusted according to activity.

| SMILES | inhibition at 0.5 µg/mL | inhibition at 10 µg/mL | inhibition at 25 µg/mL | inhibition at 50 µg/mL | inhibition at 5 µg/mL | inhibition at 20 µg/mL | also measured |
| --- | --- | --- | --- | --- | --- | --- | --- |
| CC(CSC1=C(C(=O)OCc2ccc([N+](=O)[O-])cc2)N2C(=O)C(C(C)O)C2C1)NC(=O)OCc1ccc([N+](=O)[O-])cc1 (centres unmarked) | 42% | 94% | 100% | – | – | – | inhibition at 1 µg/mL: 55%; inhibition at 2 µg/mL: 77% |
| CC(OC(=O)OCc1ccc([N+](=O)[O-])cc1)C1C(=O)N2C(C(=O)OCc3ccc([N+](=O)[O-])cc3)=C(SCCNC(=O)OCc3ccc([N+](=O)[O-])cc3)CC12 (centres unmarked) | – | 29% | 45% | 55% | – | – | – |
| O=C(NCCSC1=C(C(=O)OCc2ccc([N+](=O)[O-])cc2)N2C(=O)CC2C1)OCc1ccc([N+](=O)[O-])cc1 (centres unmarked) [H PNB PNB H H] | – | – | – | 63% | 18% | 50% | – |
| CC(O)C1C(=O)N2C(C(=O)OCc3ccccc3)=C(SCCNC(=O)OCc3ccccc3)CC12 (centres unmarked) [" benzyl benzyl H H] | – | – | – | – | – | – | inhibition at 5 µg/mL (conc. 5 μg/ml, measured within 2 minutes, crude PMN extract, Boc-AAPAN substrate, read-out: % Inhibition): 33%; inhibition at 20 µg/mL (conc. 20 μg/ml, measured within 2 minutes, crude PMN extract, Boc-AAPAN substrate, read-out: % Inhibition): 69%; inhibition at 50 µg/mL (conc. 50 μg/ml, measured within 2 minutes, crude PMN extract, Boc-AAPAN substrate, read-out: % Inhibition): 86% |
| CC(O)C1C(=O)N2C(C(=O)OCc3ccc([N+](=O)[O-])cc3)=C(SCC(C)(C)NC(=O)OCc3ccc([N+](=O)[O-])cc3)CC12 (centres unmarked) | 45% | – | – | – | 89% | 100% | – |
